Read-outs that look alike come from different tables or passages of the source.
Tests used:
[1] = system: NAT1b transcript; test: NAT1b mRNA quantification by qRT-PCR in MDA-MB-231 cells; format: cell-based, human; details: 48 h
Protocol: (§1) NAT1 mRNA levels were measured as described previously ([Millner et al., 2012]). Primers were designed to recognize only NAT1b expression. Briefly, total RNA was isolated cells lines using the RNeasy Mini kit (Qiagen, Hilden, GER) followed by removal of contaminating DNA by treatment with Turbo DNA-free (Ambion, Austin, TX, United States). cDNA was synthetized using the High-Capacity Reverse transcriptase kit (Life Technologies, Carlsbad, CA, United States) using 1 µg of total RNA in a 20 µL reaction following manufacturer’s instructions.
(§2) MDA-MB-231 or ZR-75-1 cells were plated in 12-well plates, at a density of 2 × 10^5 cells/well and allowed to attach to the plate overnight. […] After 48 h of drug treatment, plates were recovered and the cells were harvested for NAT1 activity assays, NAT1 mRNA and protein expression quantification as described above. For the siRNA transfection experiments, after 72 h of transfection, cells were harvested and processed as described above for the cells treated with inhibitors.

[2] = system: NAT1; test: NAT1 catalytic activity (PABA N-acetylation, HPLC) in lysate of treated MDA-MB-231 cells; format: cell-based, human; details: for lowest concentration that significantly increased NAT1 N-acetylation of PABA / lowest concentration that significantly decreased NAT1 catalytic activity: MDA-MB-231 cells, 48 h; for Ki: MDA-MB-231 cells treated 48 h, read-out: Ki, decrease of NAT1 catalytic activity (PABA N-acetylation)
Protocol: (§3) In vitro NAT1 enzymatic activity was quantified towards p-aminobenzoic acid (PABA). N-acetyl-PABA was quantified by High Performance Liquid Chromatography (HPLC) as previously described ([Hein et al., 2006]; [Stepp et al., 2018]). Briefly, cells were scaped from the plate and washed in ice-cold Phosphate Buffered Saline (PBS) and lysed in 20 mM sodium phosphate pH 7.4, 1 mM ethylenediaminetetraacetic acid (EDTA), 0.2% triton X-100, 1 mM dithiothreitol (DTT), 100 µM phenylmethanesulfonyl fluoride (PMSF), 1 μg/ml aprotinin, and 2 µM pepstatin A (MilliporeSigma, St. Louis, MO, United States). Cell lysate was centrifuged at 15,000 × g for 10 min, supernatant was recovered, and protein concentration was quantified as mentioned before. NAT1 enzymatic assay reactions containing 50 µL of suitable cell lysate, 300 µM PABA, and AcCoA (1 mM), were incubated at 37°C for 10 min. Reactions were terminated by the addition of 10 µL of 1 M acetic acid, then proteins were precipitated by centrifugation (15,000 × g for 20 min in the cold room) and supernatant was transferred to HPLC vials and injected onto a LiChrospher 100 RP-18 (125 mm × 4 mm; 5 µm) reverse phase column. Reactants and products were eluted with an Agilent 1260 Infinity II system (Agilent Technologies, Santa Clara, CA, United States). Separation of N-acetyl-PABA was achieved using a gradient of 96:4 of 20 mM sodium perchlorate pH 2.5: acetonitrile (ACN) to 88:12 20 mM sodium perchlorate:ACN over 3 min. Absorbance was recorded at 280 nm. Four independent measurements were performed in duplicate for each cell condition and cell line.
as §2

[3] = system: HDAC; details: MDA-MB-231 cells, vs vehicle control; for lowest concentration that significantly decreased HDAC deacetylase activity: 48 h
Protocol: (§4) The next day, cells were treated with increasing concentrations, (0–100 µM) of the inhibitor for 48 h. Following incubation, the enzymatic activity of Sirtuin and HDAC proteins was quantified using the Sirtuin Activity kit (MilliporeSigma, St. Louis, MO, United States), according to manufacturer’s instructions. […] Supernatant was recovered ant kept on ice. Samples were normalized to the lowest protein concentration sample using the Bradford protein assay (Bio-Rad, Hercules, CA, United States). Then, 20 µL of diluted cell lysate were transferred into a 96 well plate, the activity reaction mix was prepared as recommended, and the reaction was incubated for 15 min at 37°C.

[4] = system: NAT1; test: NAT1 catalytic activity (PABA N-acetylation, HPLC) in lysate of treated ZR-75-1 cells; format: cell-based, human; details: for lowest concentration that significantly upregulated NAT1 catalytic activity / lowest concentration that significantly decreased NAT1 catalytic activity: ZR-75-1 cells, 48 h; for Ki: ZR-75-1 cells treated 48 h, read-out: Ki, decrease of NAT1 catalytic activity (PABA N-acetylation)
Protocol: as §3, §2

[5] = system: NAT1b transcript; test: NAT1b mRNA quantification by qRT-PCR in ZR-75-1 cells; format: cell-based, human; details: 48 h
Protocol: as §1, §2

[6] = system: NAT1; test: NAT1 acetylation status (acetyl-lysine immunoprecipitation, AcNAT1/NAT1) in MDA-MB-231 cells; format: cell-based, human; details: 48 h, vs vehicle
Protocol: (§5) In order to assess the acetylation status of NAT1 protein, MDA-MB-231(6 × 10^5) and ZR-75-1 (3 × 10^6) cells were seeded onto 100 mm cell culture dishes and allowed to attach overnight. […] After 48-h drug treatment or 72-h siRNA transfection, cells were collected and lysed following the protocol of Signal-Seeker Acetyl-Lysine Detection kit (Citoskeleton, Denver, CO, United States). Briefly, after the incubation period concluded, cells were washed twice with PBS and lysed in ice-cold lysis buffer, 20 mM Tris-HCl (pH 7.4), 5 mM EDTA, 150 mM NaCl, 0.5% Triton X-100, 10 mM sodium butyrate and protease/phosphatase inhibitors cocktail. Cell lysates were incubated on ice for 20 min and isolated by centrifugation at 16,000 × g for 20 min. Supernatants were recovered and protein concentration was measured as described before. 150 µg of lysate was used for the IP; 1/10 of the sample was kept as input control. Thereafter, Acetyl Lysine Affinity Beads were added to the samples and incubated at 4°C for 2 h. Beads were washed three times with the provided wash buffer and the immunoprecipitated proteins were eluted and denatured with 2 × Laemmli buffer and boiled for 5 min. Protein samples were then separated by SDS-PAGE for 1 h at 150 V. Proteins were then transferred to PVDF membranes (Bio-Rad, Hercules, CA, United States) for 2 h at 100 V and blocked for 30 min in 1×fish gelatin (Biotium Inc., Fremont, CA, United States. After blocking, membranes were incubated with rabbit monoclonal anti-NAT1 antibody (ab109114, Abcam, Cambridge, United Kingdom) and mouse monoclonal anti-β-actin, as endogenous control (A2228, Sigma-Aldrich, St. Louis, MO, United States) overnight at 4°C with gentle agitation. The next day, the membranes were washed with TBST and incubated with secondary antibodies IRDye® 800 CW goat anti-rabbit and 680RD goat anti-mouse (LI-COR Biosciences, Lincoln, NE, United States) at room temperature for 1 hour. Finally, plates were washed with TBST and scanned using an Odyssey imaging system (LI-COR Biosciences, Lincoln, NE, United States). After detection of NAT1, the membranes were re-probed for acetyl-lysine-HRP detection using the antibody provided in the kit. Chemiluminescent detection was captured using a Fotodyne imaging system (Fotodyne Inc., Hartland, WI, United States). Densitometric analysis on the immunoblots was performed using ImageJ ([Schneider et al., 2012]) software or IMAGE STUDIO Lite software (LI-COR Biosciences, Lincoln, NE, United States), which enables quantitative analysis of blotting signals. NAT1 and acetyl-lysine levels were normalized to β-actin.

[7] = system: NAT1; test: NAT1 acetylation status (acetyl-lysine immunoprecipitation, AcNAT1/NAT1) in ZR-75-1 cells; format: cell-based, human; details: 48 h; for acetylation of NAT1 lysine residues, effect in words: vs vehicle; for NAT1 acetylation status, fold increase: vs vehicle control
Protocol: as §5

[8] = system: Sirtuin; test: Sirtuin activity in inhibitor-treated cells (Sirtuin Activity kit, lysate fluorescence); format: cell-based, human
Protocol: as §4

[9] = system: KDAC proteins; test: KDAC (Sirtuin / HDAC) activity, both breast cancer cell lines (discussion summary); format: cell-based, human; details: MDA-MB-231 and ZR-75-1 cell lines
[10] = system: NAT1b transcript; set-up: method as in Paterson et al., 2011; details: after treatment with TSA; ref Paterson et al., 2011; cited from earlier work
[11] = system: HDAC; details: ZR-75-1 cells, vs vehicle control
[12] = system: NAT1; set-up: method as in Paterson et al., 2011; details: after treatment with TSA; ref Paterson et al., 2011; cited from earlier work
[13] = ZR-75-1 cells, 100 µM, vs vehicle
[14] = MDA-MB-231 cells, 48 h, vs vehicle control
[15] = MDA-MB-231 cells, 48 h treatment, vs vehicle control; read-out: IC50, Sirtuin deacetylase activity
[16] = ZR-75-1 cells, 48 h, vs vehicle control
[17] = ZR-75-1 cells, 48 h treatment, vs vehicle control; read-out: IC50, Sirtuin deacetylase activity
[18] = read-out: IC50, HDAC deacetylase activity, 48 h treatment

O=C(CCCCCCC(=O)Nc1ccccc1)NO [SAHA, Vorinostat]
NAT1b transcript expression, effect in words ([1]; 10 and 100 µM, vs vehicle): more NAT1b transcript expression
lowest concentration that significantly increased NAT1 N-acetylation of PABA [2]: 10 µM
lowest concentration that significantly decreased HDAC deacetylase activity [3]: 10 µM
lowest concentration that significantly upregulated NAT1 catalytic activity [4]: 10 µM

CC(NC(=O)c1ccccc1N=Cc1c(O)ccc2ccccc12)c1ccccc1 (centres unmarked) [Sirtinol, 2-[[(2-hydroxy-1-naphthalenyl)methylene]amino]-N-(1-phenylethyl)-benzamide]
NAT1b transcript expression, effect in words [5, 13]: significant decrease
NAT1b transcript expression, effect in words ([1]; 100 µM, vs vehicle): significantly decreased
Ki [2]: 21.9 µM
lowest concentration that significantly decreased NAT1 catalytic activity [2]: 1 µM
acetylated lysine residues of NAT1, effect in words ([6]; 100 µM): increased
acetylation of NAT1 lysine residues, effect in words ([7]; 10 µM): increased
acetylation of NAT1 lysine residues, effect in words ([7]; 100 µM): increased
lowest concentration that significantly decreased Sirtuin activity [8, 14]: 100 µM
IC50 [8, 15]: 61.7 µM
lowest concentration that significantly inhibited Sirtuin deacetylase activity [8, 16]: 10 µM
IC50 [8, 17]: 35.8 µM
Ki [4]: 0.02 µM
lowest concentration that significantly decreased NAT1 catalytic activity [4]: 0.1 µM
dose producing inhibition of KDAC enzymatic activity [9]: 10 µM

CC(/C=C/C(=O)NO)=C\[C@@H](C)C(=O)c1ccc(N(C)C)cc1 [TSA, Trichostatin A]
NAT1b message expression, fold increase ([5]; ZR-75-1 cells, 1 µM): 6 fold
NAT1b transcript expression, fold increase [5, 13]: 9 fold
NAT1b transcript expression, effect in words ([5]; ZR-75-1 cells, 1, 10 and 100 µM, vs vehicle): more robust induction
lowest dose with significant upregulation of NAT1b message expression ([5]; ZR-75-1 cells): 1 µM
NAT1b transcription, fold increase ([1]; 0.01 µM): 3 fold
NAT1b transcript expression, fold increase ([1]; 10 µM, vs vehicle): over 10 fold
lowest dose with significant increase of NAT1b transcription [1]: 0.01 µM
NAT1b transcription [10]: upregulation
lowest concentration that significantly increased NAT1 N-acetylation of PABA [2]: 1 µM
NAT1 acetylation, fold increase ([6]; 10 µM): 1.6 fold
NAT1 acetylation, fold increase ([6]; 100 µM): 2.1 fold
lowest concentration that significantly inhibited HDAC enzymatic activity ([11]; 48 h): 0.1 µM
IC50 [11, 18]: 6.4 µM
NAT1 acetylation status, fold increase ([7]; 10 µM): 1.8 fold
NAT1 acetylation status, fold increase ([7]; 100 µM): 2.4 fold
lowest concentration that significantly decreased HDAC deacetylase activity [3]: 1 µM
IC50 [3, 18]: 13.5 µM
lowest concentration that significantly upregulated NAT1 catalytic activity [4]: 1 µM
NAT1 catalytic activity [12]: increase
dose producing inhibition of KDAC enzymatic activity [9]: 0.1 µM

N#CC(=Cc1ccc(-c2cc(Cl)ccc2Cl)o1)C(=O)Nc1cccc2ncccc12 [AGK2, 2-cyano-3-[5-(2,5-dichlorophenyl)-2-furanyl]-N-5-quinolinyl-2-propenamide]
NAT1b transcript expression, effect in words ([1]; 100 µM, vs vehicle): significantly decreased
Ki [2]: 10.8 µM
lowest concentration that significantly decreased NAT1 catalytic activity [2]: 1 µM
acetylated lysine residues of NAT1, effect in words ([6]; 100 µM): increased
acetylation of NAT1 lysine residues, effect in words ([7]; 100 µM): increased
lowest concentration that significantly decreased Sirtuin activity [8, 14]: 10 µM
IC50 [8, 15]: 50.1 µM
lowest concentration that significantly inhibited Sirtuin deacetylase activity [8, 16]: 10 µM
IC50 [8, 17]: 27.6 µM
Ki [4]: 0.55 µM
lowest concentration that significantly decreased NAT1 catalytic activity [4]: 1 µM
dose producing inhibition of KDAC enzymatic activity [9]: 10 µM

NC(=O)C1CCCc2c1[nH]c1ccc(Cl)cc21 (centres unmarked) [EX527, 6-chloro-2,3,4,9-tetrahydro-1H-carbazole-1-carboxamide]
NAT1b transcript expression, effect in words [5, 13]: significant decrease
NAT1b transcript expression, effect in words ([1]; 100 µM, vs vehicle): significantly decreased
Ki [2]: 7.03 µM
lowest concentration that significantly decreased NAT1 catalytic activity [2]: 0.1 µM
acetylated lysine residues of NAT1, effect in words ([6]; 100 µM): increased
lowest concentration that significantly decreased Sirtuin activity [8, 14]: 1 µM
lowest concentration that significantly inhibited Sirtuin deacetylase activity [8, 16]: 1 µM
IC50 ([8]; read-out: IC50, Sirtuin deacetylase activity; MDA-MB-231 cells, 48 h treatment, vs vehicle control): 40.6 µM
IC50 ([8]; read-out: IC50, Sirtuin deacetylase activity; ZR-75-1 cells, 48 h treatment, vs vehicle control): 11.8 µM
Ki [4]: 0.39 µM
lowest concentration that significantly decreased NAT1 catalytic activity [4]: 0.01 µM
dose producing inhibition of KDAC enzymatic activity [9]: 1 µM
